Each structure is given as a SMILES string. Where a name gives a salt, the structure may show the parent alone.

In US20080269202A1, “Novel 2,3-benzodiazepine derivatives and their use as antipsychotic agents” (Teva Pharmaceutical Industries Ltd., priority 2007, published 2008) one finds melting point data, which are given here for 69 molecules.

Consider `CNC(=O)N1N=C(c2ccc(N)cc2)c2cc(OC)c(OC)cc2C[C@@H]1C`, for which the melting point is 130 to 134 °C.

`CNC(=O)N1N=C(c2ccc(N)c(C)c2)c2cc(OC)c(OC)cc2C[C@@H]1C` displayed a melting point of 157 to 159 °C.

Consider `CNC(=O)N1N=C(c2cc(C)c(N)c(C)c2)c2cc(OC)c(OC)cc2C[C@H]1C`, for which the melting point lay within 110 to 113 °C.

`CCNC(=O)N1N=C(c2ccc(N)cc2)c2cc(OC)c(OC)cc2C[C@H]1C` showed a melting point of 122 to 124 °C.

`CCNC(=O)N1N=C(c2ccc(N)c(C)c2)c2cc(OC)c(OC)cc2C[C@H]1C` registered a melting point of 107 to 110 °C.

The molecule `CCCNC(=O)N1N=C(c2ccc(N)cc2)c2cc(OC)c(OC)cc2C[C@H]1C` displayed a melting point of 101 to 104 °C.

Regarding `CCCNC(=O)N1N=C(c2ccc(N)c(C)c2)c2cc(OC)c(OC)cc2C[C@H]1C`, the melting point lay in the range of 92 to 95 °C.

`COc1cc2c(cc1OC)C(c1ccc(N)c(C)c1)=NN(C(=O)NC(C)C)[C@H](C)C2` showed a melting point of 115 to 117 °C.

On to `COc1cc2c(cc1OC)C(c1ccc(N)cc1)=NN(C(=O)NC1CC1)[C@H](C)C2`, for which the melting point fell in the range of 116 to 119 °C.

For `COc1cc2c(cc1OC)C(c1ccc(N)c(C)c1)=NN(C(=O)NC1CC1)[C@H](C)C2`, the melting point is 112 to 114 °C.

`COc1cc2c(cc1OC)C(c1ccc(N)cc1)=NN(C(=O)N(C)C)[C@H](C)C2`: the melting point was 258 to 260 °C.

Molecule `CNC(=O)N1N=C(c2ccccc2[N+](=O)[O-])c2cc(OC)c(OC)cc2CC1C` (stereo not drawn) registered a melting point of 174 to 176 °C.

As for `CNC(=O)N1N=C(c2cccc([N+](=O)[O-])c2)c2cc(OC)c(OC)cc2CC1C` (stereo not drawn), the melting point fell in the range of 83 to 85 °C.

Turning to `CNC(=O)N1N=C(c2cccc(Cl)c2)c2cc(OC)c(OC)cc2CC1C` (stereo not drawn), the melting point lay in the range of 90 to 91 °C.

For `CNC(=O)N1N=C(c2ccc(Cl)cc2)c2cc(OC)c(OC)cc2CC1C` (stereo not drawn), the melting point lay in the range of 164 to 166 °C.

`CNC(=O)N1N=C(c2ccc(F)cc2)c2cc(OC)c(OC)cc2CC1C` (stereo not drawn) registered a melting point of 80 to 83 °C.

Regarding `COc1cc2c(cc1OC)C(c1ccc([N+](=O)[O-])cc1)=NN(C(=O)N(C)C)C(C)C2` (stereo not drawn), the melting point lay within 92 to 96 °C.

On to `CNC(=O)N1N=C(c2ccccc2)c2cc(OC)c(OC)cc2CC1C` (stereo not drawn), for which the melting point fell in the range of 86 to 88 °C.

Turning to `CNC(=O)N1N=C(c2ccc(OC)c(OC)c2)c2cc(OC)c(OC)cc2CC1C` (stereo not drawn), the melting point lay in the range of 185 to 186 °C.

`COc1cc2c(cc1OC)C(c1cccc(Cl)c1)=NN(c1nc(C)c(C)s1)C(C)C2` (stereo not drawn) (as salt: HCl) [Example 11]: the melting point lay in the range of 174 to 176 °C.

`CNC(=O)N1N=C(c2ccc(N)cc2)c2cc(OC)c(OC)cc2CC1C` (racemic): the melting point is 105 to 107 °C.

As for `CNC(=O)N1N=C(c2cccc(N)c2)c2cc(OC)c(OC)cc2CC1C` (racemic), the melting point was 103 to 108 °C.

`CNC(=O)N1N=C(c2ccccc2N)c2cc(OC)c(OC)cc2CC1C` (racemic) had a melting point of 88 to 91 °C.

Regarding `CCNC(=O)N1N=C(c2ccc(N)cc2)c2cc(OC)c(OC)cc2CC1C` (racemic), the melting point is 169 to 170 °C.

In turn, `COc1cc2c(cc1OC)C(c1ccc(N)cc1)=NN(C(=O)NC(C)C)C(C)C2` (racemic) yielded a melting point of 109 to 111 °C.

In turn, `COc1cc2c(cc1OC)C(c1ccc(N)cc1)=NN(C(=O)NC1CC1)C(C)C2` (racemic) registered a melting point of 120 to 123 °C.

On to `CCCCNC(=O)N1N=C(c2ccc(N)cc2)c2cc(OC)c(OC)cc2CC1C` (racemic), for which the melting point lay in the range of 204 to 207 °C.

`CNC(=O)N1N=C(c2ccc(N)c(C)c2)c2cc(OC)c(OC)cc2CC1C` (racemic) returned a melting point of 119 to 122 °C.

`CNC(=O)N1N=C(c2ccc(N)c(Cl)c2)c2cc(OC)c(OC)cc2CC1C` (racemic): the melting point fell in the range of 119 to 120 °C.

Take `CNC(=S)N1N=C(c2ccc(N)cc2)c2cc(OC)c(OC)cc2CC1C` (racemic): the melting point was 235 to 237 °C.

Consider `COc1cc2c(cc1OC)C(c1ccc(N)cc1)=NN(c1nccs1)C(C)C2` (racemic) [Example 136], for which the melting point lay in the range of 119 to 122 °C.

Molecule `COc1cc2c(cc1OC)C(c1ccc(N)cc1)=NN(c1nc(C)cs1)C(C)C2` (racemic) [Example 137] yielded a melting point of 122 to 124 °C.

Consider `COc1cc2c(cc1OC)C(c1ccc(N)cc1)=NN(c1ncc(C)s1)C(C)C2` (racemic) [Example 138], for which the melting point fell in the range of 120 to 122 °C.

For the molecule `COc1cc2c(cc1OC)C(c1ccc(N)cc1)=NN(c1nc(C)c(C)s1)C(C)C2` (racemic) [Example 139], the melting point was 121 to 124 °C.

The molecule `COc1cc2c(cc1OC)C(c1ccc(N)c(C)c1)=NN(c1nccs1)C(C)C2` (racemic) [Example 140] came in with a melting point of 109 to 113 °C.

The molecule `COc1cc2c(cc1OC)C(c1ccc(N)cc1)=NN(C1=NCCS1)C(C)C2` (racemic) [Example 141] displayed a melting point of 121 to 123 °C.

`COc1cc2c(cc1OC)C(c1ccc(N)cc1)=NN(C1=NC(=O)CS1)C(C)C2` (racemic) [Example 142] had a melting point of 166 to 168 °C.

For the molecule `COc1cc2c(cc1OC)C(c1ccc(N)cc1)=NN(C1=NC(=O)C(C)S1)C(C)C2` (racemic) [Example 143], the melting point was in the range of 184 to 188 °C.

For `COc1cc2c(cc1OC)C(c1ccc(N)cc1)=NN(c1nncs1)C(C)C2` (racemic) [Example 144], the melting point fell in the range of 152 to 153 °C.

For `COc1cc2c(cc1OC)C(c1ccc(N)cc1)=NN(c1nnc(C)s1)C(C)C2` (racemic) [Example 145], the melting point lay within 220 to 222 °C.

Molecule `CCc1nnc(N2N=C(c3ccc(N)cc3)c3cc(OC)c(OC)cc3CC2C)s1` (racemic) [Example 146] showed a melting point of 208 to 209 °C.

Consider `COc1cc2c(cc1OC)C(c1ccc(N)c(C)c1)=NN(c1nncs1)C(C)C2` (racemic) [Example 147], for which the melting point fell in the range of 108 to 110 °C.

Turning to `COc1cc2c(cc1OC)C(c1ccc(N)c(Cl)c1)=NN(c1nncs1)C(C)C2` (racemic) [Example 148], the melting point was 125 to 130 °C.

Take `CCOc1cc2c(cc1OCC)C(c1ccc(N)cc1)=NN(c1nncs1)C(C)C2` (racemic) [Example 149]: the melting point fell in the range of 108 to 113 °C.

The molecule `COc1cc2c(cc1OC)C(c1ccc(N)cc1)=NN(c1nnco1)C(C)C2` (racemic) [Example 150] returned a melting point of 100 to 105 °C.

In turn, `COc1cc2c(cc1OC)C(c1ccc(N)cc1)=NN(c1nnc(C)o1)C(C)C2` (racemic) [Example 151] showed a melting point of 209 to 211 °C.

`COc1cc2c(cc1OC)C(c1ccc(N)cc1)=NN(c1nc(=O)n(C)s1)C(C)C2` (racemic) [Example 152]: the melting point fell in the range of 260 to 262 °C.

Molecule `COc1cc2c(cc1OC)C(c1ccc(N)cc1)=NN(C1=NCCO1)C(C)C2` (racemic) [Example 153] returned a melting point of 135 to 137 °C.

In turn, `COc1cc2c(cc1OC)C(c1ccc(N)cc1)=NN(C1=NNC(=O)CS1)C(C)C2` (racemic) [Example 154] showed a melting point of 159 to 163 °C.

In the case of `COc1cc2c(cc1OC)C(c1ccc(N)cc1)=NN(c1ncon1)C(C)C2` (racemic) [Example 155], the melting point was in the range of 227 to 229 °C.

In the case of `COc1cc2c(cc1OC)C(c1ccc(N)cc1)=NN(c1noc(C)n1)C(C)C2` (racemic) [Example 156], the melting point was in the range of 233 to 236 °C.

The molecule `COc1cc2c(cc1OC)C(c1ccc(N)c(C)c1)=NN(c1ncon1)C(C)C2` (racemic) [Example 157] gave a melting point of 234 to 237 °C.

`COc1cc2c(cc1OC)C(c1ccc(N)c(Cl)c1)=NN(c1ncon1)C(C)C2` (racemic) [Example 158] came in with a melting point of 232 to 235 °C.

In turn, `CCOc1cc2c(cc1OCC)C(c1ccc(N)cc1)=NN(c1ncon1)C(C)C2` (racemic) [Example 159] displayed a melting point of 158 to 162 °C.

`COc1cc2c(cc1OC)C(c1ccc(N)cc1)=NN(c1ncc(C)o1)C(C)C2` (racemic) [Example 161] came in with a melting point of 103 to 107 °C.

`COc1cc2c(cc1OC)C(c1ccc(N)cc1)=NN(c1ncn[nH]1)C(C)C2` (racemic) [Example 162] showed a melting point of 152 to 155 °C.

Molecule `COc1cc2c(cc1OC)C(c1ccc(N)cc1)=NN(c1nc(C)n[nH]1)C(C)C2` (racemic) [Example 163] showed a melting point of 164 to 167 °C.

`COc1cc2c(cc1OC)C(c1ccc(N)cc1)=NN(c1ncnn1C)C(C)C2` (racemic) [Example 164]: the melting point was in the range of 160 to 162 °C.

As for `COc1cc2c(cc1OC)C(c1ccc(N)cc1)=NN(c1ncn(C)n1)C(C)C2` (racemic) [Example 165], the melting point lay within 203 to 205 °C.

`COc1cc2c(cc1OC)C(c1ccc(N)cc1)=NN(c1nc(C)n(C)n1)C(C)C2` (racemic) [Example 166]: the melting point was 243 to 246 °C.

Turning to `COc1cc2c(cc1OC)C(c1ccc(N)cc1)=NN(c1nc(C)nn1C)C(C)C2` (racemic) [Example 167], the melting point lay within 113 to 115 °C.

In the case of `COc1cc2c(cc1OC)C(c1ccc(N)cc1)=NN(C(=O)N1CCOCC1)C(C)C2` (racemic) [Example 177], the melting point lay within 124 to 127 °C.

`COc1cc2c(cc1OC)C(c1ccc(N)cc1)=NN(C(=O)N1CCCCC1)C(C)C2` (racemic) [Example 178] showed a melting point of 129 to 132 °C.

In turn, `CONC(=O)N1N=C(c2ccc(N)cc2)c2cc(OC)c(OC)cc2CC1C` (racemic) [Example 179] displayed a melting point of 173 to 174 °C.

As for `CNC(=O)N1N=C(c2ccc([N+](=O)[O-])c(Cl)c2)c2cc(OC)c(OC)cc2CC1C` (stereo not drawn) [75], the melting point lay within 194 to 195 °C.

For `CNC(=O)N1N=C(c2ccc([N+](=O)[O-])c(Cl)c2)c2cc(OC)c(OC)cc2CC1C` (stereo not drawn) [76], the melting point was 195 to 197 °C.

As to `CCNC(=O)N1N=C(c2ccc([N+](=O)[O-])cc2)c2cc(OC)c(OC)cc2CC1C` (stereo not drawn) [78], the melting point was in the range of 206 to 208 °C.

Turning to `CCNC(=O)N1N=C(c2ccc([N+](=O)[O-])cc2)c2cc(OC)c(OC)cc2CC1C` (stereo not drawn) [79], the melting point was 186 to 189 °C.

In the case of `COc1cc2c(cc1OC)C(c1ccc([N+](=O)[O-])cc1)=NN(c1nccs1)C(C)C2` (stereo not drawn) [Example 1], the melting point was 195 to 197 °C.
